Measurements from patent US8138214B2, “Pharmaceutical composition” (Shanghai Allist Pharmaceutical, Inc., priority 2007, dated 2012).

Columns and labels:
[1] = test system: spontaneously hypertensive rat (SHR); assay: Blood pressure in spontaneously hypertensive rat after gavage; format: in vivo; conditions: for blood pressure decrease: SHR, dispersed in physiologic saline
[2] = dog, in vivo, po, 27 mg/kg
Experimental: (I) Beagle dogs are selected as experimental animals, six dogs per group. 2-butyl-4-chloro-1-[2′-(1H-tetrazol-5-yl) 1,1′-biphenyl-methyl]imidazole-5-carboxylic acid, 1-[(isopropoxy)carbonyloxy]methyl ester suspended in physiologic saline is administered in single dose of drug by gavage in dosage level of 3.0 mg/kg, 9.0 mg/kg, and 27 mg/kg. Blood samples were drawn for each dosage group at set time point. […] Determine the level of the active metabolite in plasma, calculate EXP3174's pharmacokinetic parameters according to the concentration-time curve, and investigate the correlation between dosage and main pharmacokinetic parameters Cmax and AUC0-t.

CCCCc1nc(Cl)c(C(=O)OCOC(=O)OC(C)C)n1Cc1ccc(-c2ccccc2-c2nnn[nH]2)cc1 [Compound I, 2-butyl-4-chloro-1-[2′-(1H-tetrazol-5-yl)1,1′-biphenyl-methyl]imidazole-5-carboxylic acid, 1-[(isopropoxy)carbonyloxy]methyl ester]
blood pressure decrease ([1]; 15 mg/kg by gavage): 10 mm of mercury column | blood pressure decrease ([1]; 30 mg/kg by gavage): 20 mm of mercury column | antihypertensive effect ([1]; rats, oral dosage no less than 15 mg/kg): significant antihypertensive effect | correlation between dosage and Cmax and AUC0-t of EXP3174 [2]: proportional to the dosage
